Reference: US20070179085A1, “MODULATION OF RHAMM-CAVEOLIN/LIPID RAFT INTERACTIONS TO AFFECT DEVELOPMENT, RESPONSES TO TISSUE INJURY, ANGIOGENESIS, TUMORIGENESIS, METASTASIS AND GROWTH FACTOR/CYTOKINE RESPONSES” (priority 2005, published 2007)

Columns and labels:
alveolar macrophages = assay: Timelapse cinemicrography of macrophage motility; assay type: cell-based, rat; conditions: macrophages from bleomycin treated animals, 4 days
Method: Freshly isolated cells from bronchoalveolar lavage of saline or bleomycin-treated animals were monitored for their motility using a Nikon TE-300 inverted microscope (Nikon Corp., Tokyo, Japan) to which a video camera (Hamamatsu CCD, Inc., Hamamatsu City, Japan) was attached. Cell locomotion of at least 20 cells per animal was determined using Metamorph (Universal Imaging Corp., Downingtown, Pa.). Cells were plated and maintained at 37° C. and followed for 2 hours with mean velocities calculated every 10 minutes. The effect of anti-RHAMM antibody was examined by adding 5 μg/ml of antibody per plate per treatment 15 minutes before measurement of motility. Non-immune IgG was used as a control. Each experiment was repeated at least three times.

male Sprague-Dawley rats = assay: Intratracheal bleomycin lung injury: macrophage accumulation (ED1) and lung architecture; assay type: in vivo, rat
Excerpt: The Institutional Animal Care and Utilization Committees at both The Childrenls Hospital of Philadelphia and The University of Pennsylvania School of Medicine approved all animal care procedures. Six-week old (200-250 grams) male Sprague-Dawley rats (Charles River Breeding Laboratories, N. Wilmington, Mass.) were housed in the Animal Care Facility of The Children's Hospital of Philadelphia under standard conditions with free access to food and water. Animals were anesthetized with ketamine:xylazine:atropine (16:8:0.01 mg/kg), and the trachea was visualized through a vertical incision in the neck. Using an insulin syringe, 250 μl of either LPS-free saline or 8 units/kg bleomycin sulfate (Bristol Myers Squibb, Princeton, N.J.) in 250 μl of saline was injected into the trachea. The incision was closed with surgical clips, and animals were immediately injected intraperitoneally with either 0.5 mg of anti-RHAMM antibody (R36) or non-immune IgG. Antibody treatment was continued with daily injections of 0.5 mg of either R36 or IgG for either three or six days. At least three animals were examined for each condition, including one set that remained unmanipulated throughout.
Animals were sacrificed on days 4 or 7 after injury. Bronchoalveolar lavage (BAL) was obtained (36 ml/kg, total lung capacity) and immediately centrifuged at 500 g for 10 minutes to remove all cells and cellular debris. Approximately 80-90% of lavage was routinely recovered. The cellular pellet and the supernatant were separated and frozen at −70° C. until further analysis. […]
Macrophage accumulation was quantified by immunofluorescent staining with the rat macrophage specific marker ED1 (Serotec, Raleigh, N.C.). Endogenous fluorescence was blocked with separate exposure to sodium borohydrate (1 g/10 ml PBS, 3 minutes×2) and 1 M glycine in PBS for 30 minutes. […] Three blinded, independent observers counted ED 1 positive cells per high power field to quantify macrophage accumulation in at least three lung sections from each animal. […]

Substance: bleomycin sulfate
- increase in motility of alveolar macrophages (alveolar macrophages): 5 fold
- increase in macrophage number (male Sprague-Dawley rats; IT bleomycin, ED1 positive cells per hpf): 3 fold
- macrophage number (ED1 positive cells) (male Sprague-Dawley rats; lung sections after IT bleomycin 8 units/kg, R36 0.5 mg ip daily): 28.4±4.7 cells per hpf
- lung architecture at seven days (male Sprague-Dawley rats; tissue sections, bleomycin-injured rats): influx of inflammatory cells with thickening of alveolar septae and early fibrosis
